The source of these data is patent US7879835B2 (Korea Research Institute of Chemical Technology, priority 2004, dated 2011).

In one data set the test system is MG-63 cells. Briefly: Cytotoxicity test against osteoblast (MTT). The data set is classed as cell-based, human. The procedure: (§1) In order examine the toxicities of the compounds of the Examples against osteoclast pregenitors, pregenitor cells were aliquotted onto a 96-well microplate at a density of 2×10^5 cells per well, treated with 2, 4 and 8 μM of the test compounds, respectively, and cultured for 48 hrs in α-MEM supplemented with 20 ng/ml of M-CSF (Peprotech, USA) using 37° C. incubator (5% CO2). At 3 hrs before the culture was finished, 50 μl of MTT (3-(4,5-dimethylthiazol-2-yl)-2,5-diphenyltetrazolium bromide) solution (50 μg/ml) was added to each well. Upon completion of the cell culture, the supernatant was removed, and the precipitated dye was reacted with 100 μl of isopropanol/0.04 N HCl at room temperature for 30 min to dissolve it. The absorbances of the wells were measured at 550 nm, and the relative absorbance of each well relative to that of the control (set as 100) is shown in Table 6.
In order to examine the toxicity of the compounds of the Examples against osteoblasts, human osteosarcoma-derived cell line, MG-63 (ATCC No. CRL-1427) cells were treated with 0.1, 0.3, 1.0 and 3.0 μM of the compounds of the Examples, and cultured in DMEM supplemented with 10% FBS (fetal bovine serum).

The test system of a further data set is osteoclasts. Briefly: Inhibitory effect on resorption activity of osteoclast (resorption pit area on calcium phosphate-coated plate). The data set is classed as cell-based, mice. As to conditions: compared to control. On the procedure:
After finishing culture, the plate was washed with distilled water, and 50 μl/well of 5% sodium hypochlorite was added to the plate. The plate was let alone for 5 min, washed again with distilled water to remove the adherent cells, and dried at room temperature. Then, the area of formed resorption pits was calculated by means of Image Pro Plus software (Media Cybernetics Ver. 3.0).

Data set [1] relates to osteoclast pregenitor cells. Briefly: Cytotoxicity against osteoclast pregenitor (MTT). The class given is cell-based, mice. The conditions noted are these: 48 hrs, absorbance at 550 nm. The procedure: as §1
Data set [2] relates to osteoclast (TRAP-positive multinuclear cell) formation. Briefly: Inhibitory effect on osteoclast formation (TRAP staining). As to conditions: compared to control; for Osteoclast formation inhibitory effects (%): 8 days culture with M-CSF and RANKL; for inhibition at 0.1 µM / inhibition at 0.3 µM / inhibition at 1 µM / inhibition at 3 µM: Mus musculus, Osteoclast, read-out: Osteoclast formation inhibitory effects (%); for inhibition at 0.1 µM: 0.1 μM (Table 4b); for inhibition at 0.3 µM: 0.3 μM (Table 4b); for inhibition at 1 µM: 1 μM (Table 4b); for inhibition at 3 µM: 3 μM (Table 4b). The data set is classed as cell-based, mice. On the procedure: The inhibitory activities of the alpha-arylmethoxyacrylate derivatives prepared in the above Examples on the proliferation of osteoclasts were examined as follows.
First, a bone marrow sample containing osteoclast pregenitor cells was isolated as follows. After sacrificing 7 to 9 week-old female mice by cervical dislocation, femur and tibia were excised aseptically while removing soft tissues attached thereto, After cutting both ends of the long bones, 1 ml of an enzyme solution containing 0.1% collagenase (Gibco), 0.05% trypsin and 0.5 mM EDTA (Gibco) was injected into the bone marrow cavity at one end using a syringe with a 26-gauge needle, and the bone marrow was then collected. After stirring the recovered bone marrow for 30 min, the precipitated bone marrow cells were collected, and cultured in α-minimum essential medium (α-MEM) supplemented with 10% FBS for 24 hrs. Then, non-adherent cells, which are osteoclast pregenitors, were aliquoted onto a culture plate at a density of 2×10^5 cells per well, and cultured for 8 days in α-MEM supplemented with 20 ng/ml of macrophage-colony stimulating factor (M-CSF, Peprotech, USA), 30 ng/ml RANKL (Peprotech, USA), and 0.3, 1.0 or 3 μM of the compounds of the Examples. Control cells were cultured at the same condition except not adding the compounds of the Examples.
After cell culture for 8 days, the adherent cells were washed with PBS and fixed with citrate-acetate-formaldehyde for 5 min. The fixed cells were incubated at 37° C. for 1 hr in acetate buffer (pH 5.0) containing naphthol AS-BI phosphate, fast Garnet GBC solution and 7 mM tartrate buffer (pH 5.0) to conduct TRAP (tartrate-resistant acid phosphatase) staining.

Data set [3] in a line: In vitro pharmacokinetics: metabolic stability in liver microsome. The data set is classed as in vitro ADME. The conditions noted are these: human liver microsome 1 mg/ml, 20 μM compound; for half-life at 20 µM: liver microsomes. The procedure: Metabolic stabilities of the compounds of the Examples were examined by employing microsome samples prepared from the human liver.
Each 20 μM of the compounds were reacted with 1 mg/ml of liver microsome and the half-lives and one-hour stabilities of the compounds were determined.
In general terms: Liver microsomes are a subcellular fraction often used to study metabolism.

Each structure is given as a SMILES string.

On to `CO/C=C(/C(=O)OC)c1ccccc1COc1cccc(C(OC)OC)c1` [compound 133], for which the “relative absorbance relative to that of the control (set as 100), MTT” value (“relative absorbance relative to that” for short) turned out to be 103 with MG-63 cells (0.11 uM); 108 with MG-63 cells (0.33 uM); 107 with MG-63 cells (1 uM); 103 in the data set on MG-63 cells (3 uM); 93 in data set [1] (2 uM); 104 in data set [1] (4 uM). The “relative absorbance relative to that” value in data set [1] (8 uM) worked out at 102. In addition, the “Reduction (%) of the resorption pit area of osteoclasts” value (shortened to “Reduction (%)”) in the data set on osteoclasts (0.3 uM) is reported as 75%; with osteoclasts (1 uM) it was 99%; in the data set on osteoclasts (3 uM) it was 100%. In addition, the “Osteoclast formation inhibitory effects (%)” value is reported as 16% in data set [2] (0.3 μM), 95% in data set [2] (1.0 μM) and 100% in data set [2] (3.0 μM).
With `CCC(C)Oc1cccc(OCc2ccccc2/C(=C\OC)C(=O)OC)c1` (stereo not shown) [compound 221], the “Reduction (%)” value was found to be 94% in the data set on osteoclasts (0.3 uM), 100% in the data set with osteoclasts (1 uM) and 100% in the data set on osteoclasts (3 uM). Further, the “relative absorbance relative to that” value in data set [1] (2 uM) turned out to be 96; in data set [1] (4 uM), 96; in data set [1] (8 uM), 99. Besides, the results for the “Osteoclast formation inhibitory effects (%)” value in data set [2] (0.3 μM), in data set [2] (1.0 μM) and in data set [2] (3.0 μM) were 39%, 100% and 100%, respectively.
Take `CO/C=C(/C(=O)OC)c1ccccc1COc1ccc(C2OCCCO2)cc1` [compound 161]: the results for the “Reduction (%)” value in the data set with osteoclasts (0.3 uM), with osteoclasts (1 uM) and with osteoclasts (3 uM) were 94%, 100% and 100%, respectively. Moreover, the “Osteoclast formation inhibitory effects (%)” value in data set [2] (0.3 μM) was 19%; in data set [2] (1.0 μM), 100%; in data set [2] (3.0 μM), 100%. This compound also had a Half-life in data set [3] of 45.6 min. The One-hour stability in data set [3] is given as 40%.
As for `CO/C=C(/C(=O)OC)c1ccccc1COc1ccc(N2CCCCC2)cc1` [compound 399], the “relative absorbance (MTT) relative to control (set as 100)” value with MG-63 cells (0.33 μM compound) is listed as 96. Also, the “relative absorbance (MTT) relative to control (set as 100)” value with MG-63 cells (1 μM compound) is 76. The “relative absorbance (MTT) relative to control (set as 100)” value in the data set on MG-63 cells (3 μM compound) is given as 65. Also, in data set [2], the inhibition at 0.1 µM is 0%, the inhibition at 0.3 µM was found to be 70%, the inhibition at 1 µM is 100% and the inhibition at 3 µM stood at 100%. The same compound yielded a half-life at 20 µM in data set [3] of 43 ± 1.8 min.
As for `CO/C=C(/C(=O)OC)c1ccccc1COc1cccc(OCC(C)C)c1` [compound 219], the results for the “Reduction (%)” value in the data set on osteoclasts (1 uM) and in the data set with osteoclasts (3 uM) were 88% and 100%, respectively. The “relative absorbance relative to that” value in data set [1] (2 uM) came to 90; in data set [1] (4 uM) it was 100; in data set [1] (8 uM), 99. The “Osteoclast formation inhibitory effects (%)” value in data set [2] (0.3 μM) was 99%; in data set [2] (1.0 μM), 100%; in data set [2] (3.0 μM), 100%.
Take `CO/C=C(/C(=O)OC)c1ccccc1COc1cccc(OCC=C(C)C)c1` [compound 217]: the “Reduction (%)” value in the data set with osteoclasts (1 uM) and in the data set with osteoclasts (3 uM) was 100% in each case. Moreover, the “relative absorbance relative to that” value in data set [1] (2 uM) is 90; in data set [1] (4 uM), 96; in data set [1] (8 uM) it was 107. Also, the “Osteoclast formation inhibitory effects (%)” value is 94% in data set [2] (0.3 μM), 100% in data set [2] (1.0 μM) and 100% in data set [2] (3.0 μM).
Consider `CO/C=C(/C(=O)OC)c1ccccc1COc1ccc(N2CCCCC2)c(F)c1` [compound 416], for which, in data set [2], the inhibition at 0.1 µM amounted to 0%, the inhibition at 0.3 µM was found to be 75%, the inhibition at 1 µM was determined as 100% and the inhibition at 3 µM stood at 100%. This compound gave a half-life at 20 µM in data set [3] of 43.9 min.
For `CO/C=C(/C(=O)OC)c1ccc(Cl)cc1COc1ccc(N2CCOCC2)cn1` [compound 394], the “relative absorbance (MTT) relative to control (set as 100)” value in the data set on MG-63 cells (0.33 μM compound) worked out at 113. In addition, the “relative absorbance (MTT) relative to control (set as 100)” value in the data set on MG-63 cells (1 μM compound) is 105. In the data set with MG-63 cells (3 μM compound), the “relative absorbance (MTT) relative to control (set as 100)” value is on record as 110. In data set [2], the inhibition at 0.1 µM was 0%, the inhibition at 0.3 µM stood at 98%, the inhibition at 1 µM is 100% and the inhibition at 3 µM turned out to be 100%. Further, the half-life at 20 µM in data set [3] was 55.5 ± 12 min.
Consider `CO/C=C(/C(=O)OC)c1ccccc1COc1cccc(OCC2CC2)c1` [compound 215], for which the figures for the “Reduction (%)” value in the data set with osteoclasts (0.3 uM), in the data set on osteoclasts (1 uM) and in the data set with osteoclasts (3 uM) were 97%, 100% and 100%, respectively. Besides, the “relative absorbance relative to that” value in data set [1] (2 uM) was 96; in data set [1] (4 uM), 102; in data set [1] (8 uM), 107. The “Osteoclast formation inhibitory effects (%)” value in data set [2] (0.3 μM) worked out at 51%; in data set [2] (1.0 μM) it was 100%; in data set [2] (3.0 μM), 100%.
With `CO/C=C(/C(=O)OC)c1ccccc1COc1cccc(OC2CCCC2)c1` [compound 222], the entries for the “Reduction (%)” value with osteoclasts (0.3 uM), in the data set on osteoclasts (1 uM) and in the data set with osteoclasts (3 uM) were 100.0%, 100% and 100%, respectively. Further, the “relative absorbance relative to that” value in data set [1] (2 uM) was determined as 97; in data set [1] (4 uM) it was 108; in data set [1] (8 uM), 101. The “Osteoclast formation inhibitory effects (%)” value in data set [2] (0.3 μM) was 69%; in data set [2] (1.0 μM) it was 100%; in data set [2] (3.0 μM), 100%.
`CO/C=C(/C(=O)OC)c1ccccc1COc1cccc(N2CCN(C)CC2)c1` [compound 391]: the “relative absorbance (MTT) relative to control (set as 100)” value with MG-63 cells (0.33 μM compound) was found to be 104. In the data set with MG-63 cells (1 μM compound), the “relative absorbance (MTT) relative to control (set as 100)” value came out at 99. The “relative absorbance (MTT) relative to control (set as 100)” value in the data set with MG-63 cells (3 μM compound) is on record as 111. Further, in data set [2], the inhibition at 0.3 µM was 4%, the inhibition at 1 µM amounted to 50% and the inhibition at 3 µM was 100%. Also, the half-life at 20 µM in data set [3] amounted to 107 ± 18.6 min.
On to `CO/C=C(/C(=O)OC)c1ccccc1COc1ccc(N(C)CC(C)C)cc1F` [Compound No. 426, (E)-methyl-2-[2-((4-(N-isobutyl-N-methylamino)-2-fluorophenoxy)methyl)phenyl]-3-methoxyacrylate], for which, in data set [2], the inhibition at 0.1 µM turned out to be 25%, the inhibition at 0.3 µM stood at 100%, the inhibition at 1 µM was found to be 100% and the inhibition at 3 µM came to 100%. The compound further came in with a half-life at 20 µM in data set [3] of 42.7 ± 2.1 min.

Broadly, the half-life is the time in which the quantity being followed falls by half. High values mean slow loss, low ones fast loss.
